Measurements reported in patent US5470872A, “Benzopyranols” (Beecham Group plc, priority 1988, dated 1995).

Experiments:
[1] = test system: Spontaneously hypertensive rats; experiment: Blood pressure lowering activity, tail cuff method, spontaneously hypertensive rats; type: in vivo, rat
Description: Blood Pressure Lowering Activity
Systolic blood pressures were recorded by a modification of the tail cuff method described by I. M. Claxton, M. G. Palfreyman, R. H. Poyser, R. L. Whiting, European Journal of Pharmacology, 37,179 (1976). A W+W BP recorder, model 8005 was used to display pulses. Prior to all measurements rats were placed in a heated environment (33.5°±0.5° C.) before transfer to a restraining cage. Each determination of blood pressure was the mean of at least 6 readings. Spontaneously hypertensive rats (ages 12-18 weeks) with systolic blood pressures >180 mmHg were considered hypertensive.

[2] = test system: guinea pig tracheal spiral preparations; experiment: Bronchodilation in vitro; guinea pig tracheal spiral preparations; type: cell-based; settings: Cavia porcellus, relaxation of guinea pig tracheal spirals, relative to total relaxation with 10^-3 M isoprenaline; for Emax: read-out: I.A (efficacy, Intrinsic Activity)
Description: (a) Bronchodilation in vitro; guinea pig tracheal spiral preparations
Male guinea pigs (300-600 g) were stunned by a blow to the head and bled from the carotid artery. The trachea was exposed, dissected free of connective tissue, and transferred to oxygenated krebs solution at 37° C. Next, spirals (2 per trachea) were prepared by cutting the whole trachea spirally along its longitudinal axis and then dividing this spiral lengthwise. Each preparation was mounted, using silk thread, in a 10 ml organ bath filled with krebs solution at 37° C. and bubbled with 5% CO2 with O2. The resting tension of the preparations was set at 2 g and changes in muscle tension were monitored isometrically by means of a UFI (2 oz) force and displacement transducer (Ormed Ltd) connected to a Linseis pen recorder. All preparations were allowed to equilibrate for 60 minutes. During this equilibration period the preparations were washed by upward displacement at 15 minute intervals and, if necessary, the resting tension was readjusted to 2 g using a mechanical micromanipulator system.
Once a steady resting tension had been obtained, the preparations were dosed cumulatively with the test compound (10^-8 -2×10^-5 M), and finally a maximum relaxation achieved by addition of 10^-3 M isoprenaline. The fall in tension evoked by the test compound was expressed as a percentage of the total relaxation evoked in the presence of 10^-3 M isoprenaline. Appropriate concentration-relaxation curves were then constructed and values for potency (IC50) and efficacy (Intrinsic Activity, I.A.) were obtained.
The composition of Krebs solution is: sodium chloride 118.07 mM, sodium hydrogen carbonate 26.19 mM, potassium chloride 4.68 mM, potassium orthophosphate 1.18 mM, magnesium sulphate septahydrate 1.8 mM and calcium chloride 2.52 mM; pH ca. 7.45.

| IC50 [2] | SMILES | Emax [2] | other results |
| --- | --- | --- | --- |
| 190 nM | CC1(C)Oc2ccc(C(F)(F)C(F)(F)F)cc2[C@@H](N2CCCC2=O)[C@@H]1O (relative stereo) [Example 1, Trans-3,4-Dihydro-2,2-dimethyl-6-pentafluoroethyl-4-(2-oxopyrrolidin-1-yl)-2H-1-benzopyran-3-ol] | 88% | % change in systolic B.P. 1 h ([1]; 0.1 mg/kg p.o.): -19 ± 3%; % change in systolic B.P. 2 h ([1]; 0.1 mg/kg p.o.): -30 ± 2%; % change in systolic B.P. 4 h ([1]; 0.1 mg/kg p.o.): -28 ± 2% |
| – | CC1(C)Oc2ccc(C(F)(F)C(F)(F)F)cc2[C@@H](N2CCCCC2=O)[C@@H]1O (relative stereo) [Example 4, Trans-3,4-dihydro-2,2-dimethyl-4-(2-oxopiperidin-1-yl)-6-pentafluoroethyl-2H-1-benzopyran-3-ol] | 90% | % change in systolic B.P. 1 h ([1]; 0.3 mg/kg p.o.): -36 ± 3%; % change in systolic B.P. 2 h ([1]; 0.3 mg/kg p.o.): -30 ± 1%; % change in systolic B.P. 4 h ([1]; 0.3 mg/kg p.o.): -26 ± 2% |
| 150 nM | CC1(C)Oc2ccc(C(F)(F)C(F)(F)F)cc2[C@@H](n2ccccc2=O)[C@@H]1O (relative stereo) [Example 5, Trans-3,4-dihydro-2,2-dimethyl-6-pentafluoroethyl-4-(2(1H)-pyridon-1-yl)-2H-1-benzopyran-3-ol] | 97% | – |
| 98 nM | CC1(C)C=C(N2CCCC2=O)c2cc(C(F)(F)C(F)(F)F)ccc2O1 [Example 2, 2,2-Dimethyl-6-pentafluoroethyl-4-(2-oxopyrrolidin-1-yl)-2H-1-benzopyran] | 96% | % change in systolic B.P. 1 h ([1]; 1.0 mg/kg p.o.): -38 ± 2%; % change in systolic B.P. 2 h ([1]; 1.0 mg/kg p.o.): -24 ± 10%; % change in systolic B.P. 4 h ([1]; 1.0 mg/kg p.o.): -18 ± 6% |
| 370 nM | CC1(C)Oc2ccc(C(O)C(F)(F)F)cc2[C@@H](N2CCCC2=O)[C@@H]1O (some centres unmarked) [Example 3] | 89% | % change in systolic B.P. 1 h ([1]; 0.3 mg/kg p.o.): -40 ± 10%; % change in systolic B.P. 2 h ([1]; 0.3 mg/kg p.o.): -29 ± 7%; % change in systolic B.P. 4 h ([1]; 0.3 mg/kg p.o.): -25 ± 7% |
| – | CC1(C)Oc2ccc(C(F)(F)C(F)(F)F)cc2[C@@H](N2CCCCC2=O)[C@@H]1O [Example 6, (-)-Trans-3,4-dihydro-2,2-dimethyl-4-(2-oxopiperidin-1-yl)-6-pentafluoroethyl-2H-1-benzopyran-3-ol] | 93% | – |
| 190 nM | CC1(C)C=C(N2CCCCC2=O)c2cc(C(F)(F)C(F)(F)F)ccc2O1 [Example 8, 2,2-Dimethyl-6-pentafluoroethyl-4-(2-oxopiperidin-1-yl)-2H-1-benzopyran] | 88% | – |
| 71.5 nM | CC1(C)C=C(n2ccccc2=O)c2cc(C(F)(F)C(F)(F)F)ccc2O1 [Example 9, 2,2-Dimethyl-6-pentafluoroethyl-4-(2(1H)pyridon-1-yl)-2H-1-benzopyran] | 84% | – |
